Test results from patent US8383641B2, “Aryloxyethylamine compounds suitable for treating disorders that respond to modulation of the dopamine D3 receptor” (Abbott GmbH & Co. KG, priority 2006, dated 2013).
Counter-ions that a name gives are not always drawn.

Tests used:
[1] = target: T1, human dopamine D3 receptors (Homo sapiens, UniProt P35462); assay: Dopamine D3 receptor binding, [125I]-iodosulpride displacement; conditions: membranes of HEK-293 cells expressing human D3 receptor; 0.1 nM [125I]-iodosulpride
T1 construct: expressed in transfected cells; host or cells: HEK-293
Method: (§1) The substance to be tested was either dissolved in methanol/Chremophor® (BASF-AG) or in dimethyl sulfoxide and then diluted with water to the desired concentration.
(§2) Each assay mixture was run in triplicate.
The incubation buffer contained 50 mM tris, 120 mM NaCl, 5 mM KCl, 2 mM CaCl2, 2 mM MgCl2 and 0.1% bovine serum albumin, 10 μM quinolone and 0.1% ascorbic acid (prepared fresh daily). The buffer was adjusted to pH 7.4 with HCl.
(§3) After having been incubated at 25° C. for 60 minutes, the assay mixtures were filtered through a Whatman GF/B glass fiber filter under vacuum using a cell collecting device. The filters were transferred to scintillation viols using a filter transfer system. After 4 ml of Ultima Gold® (Packard) have been added, the samples were shaken for one hour and the radioactivity was then counted in a Beta-Counter (Packard, Tricarb 2000 or 2200CA). The cpm values were converted into dpm using a standard quench series and the program belonging to the instrument.
(§4) The inhibition curves were analyzed by means of iterative nonlinear regression analysis using the Statistical Analysis System (SAS) which is similar to the “LIGAND” program described by Munson and Rodbard.

[2] = target: T2, human dopamine D2L receptors (long isoform) (Homo sapiens, UniProt P14416); assay: Dopamine D2L receptor binding, [125I] iodospiperone displacement; conditions: selectivity ratio of receptor binding constants, D2L versus D3
T2 construct: expressed in transfected cells; host or cells: HEK-293
Method: as §1, §2
The incubation buffer contained 50 mM tris, 120 mM NaCl, 5 mM KCl, 2 mM CaCl2, 2 mM MgCl2 and 0.1% bovine serum albumin. The buffer was adjusted to pH 7.4 with HCl.
as §3, §4

T1 sequence (P35462 whole entry): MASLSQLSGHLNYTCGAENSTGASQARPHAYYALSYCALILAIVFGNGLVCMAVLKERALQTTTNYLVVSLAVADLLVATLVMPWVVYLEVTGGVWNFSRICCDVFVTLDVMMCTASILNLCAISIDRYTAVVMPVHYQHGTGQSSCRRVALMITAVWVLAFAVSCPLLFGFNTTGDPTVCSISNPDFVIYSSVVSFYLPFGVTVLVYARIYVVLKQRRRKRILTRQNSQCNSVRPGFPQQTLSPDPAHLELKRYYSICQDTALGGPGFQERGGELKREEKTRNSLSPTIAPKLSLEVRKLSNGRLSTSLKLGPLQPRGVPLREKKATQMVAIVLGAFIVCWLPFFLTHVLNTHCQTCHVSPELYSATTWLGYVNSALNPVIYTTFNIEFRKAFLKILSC
T2 sequence (P14416 whole entry, canonical isoform): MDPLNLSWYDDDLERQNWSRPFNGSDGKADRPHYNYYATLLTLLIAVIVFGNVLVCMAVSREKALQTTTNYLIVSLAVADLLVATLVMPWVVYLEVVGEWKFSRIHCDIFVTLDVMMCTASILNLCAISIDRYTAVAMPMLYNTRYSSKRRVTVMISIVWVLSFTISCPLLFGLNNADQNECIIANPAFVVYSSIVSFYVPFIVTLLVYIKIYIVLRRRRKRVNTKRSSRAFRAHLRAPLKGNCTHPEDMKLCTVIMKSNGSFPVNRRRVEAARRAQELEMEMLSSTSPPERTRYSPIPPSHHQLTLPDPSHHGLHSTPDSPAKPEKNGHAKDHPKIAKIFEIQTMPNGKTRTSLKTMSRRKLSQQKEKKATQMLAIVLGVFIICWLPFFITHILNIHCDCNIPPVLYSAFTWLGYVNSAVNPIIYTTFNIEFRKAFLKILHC

Ki [1] [nM]	Ki(D2)*/Ki(D3)* [2]	Structure (SMILES)
50 to 150		CC(C)c1ccc(S(=O)(=O)Nc2ccc(OCCN(C)C)nc2)cc1 [Example 22, N-[6-(2-Dimethylamino-ethoxy)-pyridin-3-yl]-4-isopropyl-benzenesulfonamide×HCl]
50 to 150	++ (between 50 and 100)	CCCNCCOc1ncc(NS(=O)(=O)c2ccc(OC(F)(F)F)cc2)c(OC)n1 [Example 21, N-[4-Methoxy-2-(2-propylamino-ethoxy)-pyrimidin-5-yl]-4-trifluoromethoxy-benzenesulfonamide]
1 to 10	++ (between 50 and 100)	COc1nc(OCCN2CCCC2)ccc1NS(=O)(=O)c1ccc([C@@H](C)CF)cc1 [Example 17, 4-((R)-2-Fluoro-1-methyl-ethyl)-N-[2-methoxy-6-(2-pyrrolidin-1-yl-ethoxy)-pyridin-3-yl]-benzenesulfonamide]
1 to 10	++++ (>150)	CCCNCCOc1ccc(NS(=O)(=O)c2ccc([C@@H](C)CF)cc2)c(C)n1 [Example 34, 4-((R)-2-Fluoro-1-methyl-ethyl)-N-[2-methyl-6-(2-propylamino-ethoxy)-pyridin-3-yl]-benzenesulfonamide×HCl]
< 1	++++ (>150)	CCCNCCOc1ccc(NS(=O)(=O)c2ccc(-c3cnco3)cc2)c(OC)n1 [Example 7, N-[2-Methoxy-6-(2-propylamino-ethoxy)-pyridin-3-yl]-4-oxazol-5-yl-benzenesulfonamide×HCl]
1 to 10	++ (between 50 and 100)	CCCNCCOc1ccc(NS(=O)(=O)c2ccc(CCF)cc2)c(OC)n1 [Example 6, 4-(2-Fluoro-ethyl)-N-[2-methoxy-6-(2-propylamino-ethoxy)-pyridin-3-yl]-benzenesulfonamide×HCl]
< 1	++++ (>150)	CCCNCCOc1ccc(NS(=O)(=O)c2ccc([C@@H](C)CF)cc2)c(OC)n1 [Example 11, 4-((R)-2-Fluoro-1-methyl-ethyl)-N-[2-methoxy-6-(2-propylamino-ethoxy)-pyridin-3-yl]-benzenesulfonamide×HCl]
1 to 10	++++ (>150)	CCCNCCOc1ccc(NS(=O)(=O)c2ccc(OCC(F)(F)F)cc2)c(OC)n1 [Example 10, N-[2-Methoxy-6-(2-propylamino-ethoxy)-pyridin-3-yl]-4-(2,2,2-trifluoro-ethoxy)-benzenesulfonamide×HCl]
< 1	++ (between 50 and 100)	CCCNCCOc1ccc(NS(=O)(=O)c2ccc(CCCF)cc2)c(OC)n1 [Example 1, 4-(3-Fluoro-propyl)-N-[2-methoxy-6-(2-propylamino-ethoxy)-pyridin-3-yl]-benzenesulfonamide×HCl]
10 to 50	+ (between 10 and 50)	COc1nc(OCCN2CCCC2)ccc1NS(=O)(=O)c1ccc(-c2cnco2)cc1 [Example 19, N-[2-Methoxy-6-(2-pyrrolidin-1-yl-ethoxy)-pyridin-3-yl]-4-oxazol-5-yl-benzenesulfonamide]
1 to 10	+ (between 10 and 50)	CCCNCCOc1ncc(NS(=O)(=O)c2ccc(C(C)C)cc2)c(OC)n1 [Example 20, 4-isopropyl-N-[4-methoxy-2-(2-propylamino-ethoxy)-pyrimidin-5-yl]-benzenesulfonamide]
10 to 50	++ (between 50 and 100)	CCCN(CCC)CCOc1ccc(NS(=O)(=O)c2ccc(C(C)C)cc2)cn1 [Example 24, N-[6-(2-Dipropylamino-ethoxy)-pyridin-3-yl]-4-isopropyl-benzenesulfonamide×HCl]
1 to 10	+ (between 10 and 50)	COc1nc(OCCN2CCCC2)ccc1NS(=O)(=O)c1ccc(C(C)C)cc1 [Example 16, 4-Isopropyl-N-[2-methoxy-6-(2-pyrrolidin-1-yl-ethoxy)-pyridin-3-yl]-benzenesulfonamide×HCl]
1 to 10	+ (between 10 and 50)	COc1nc(OCCN2CCCC2)ccc1NS(=O)(=O)c1ccc(C(C)C(F)(F)F)cc1 (stereo not drawn) [Example 18, N-[2-Methoxy-6-(2-pyrrolidin-1-yl-ethoxy)-pyridin-3-yl]-4-(2,2,2-trifluoro-1-methyl-ethyl)-benzenesulfonamide]
1 to 10	++ (between 50 and 100)	CCCNCCOc1ccc(NS(=O)(=O)c2ccc(OC(F)F)cc2)c(OC)n1 [Example 5, 4-Difluoromethoxy-N-[2-methoxy-6-(2-propylamino-ethoxy)-pyridin-3-yl]-benzenesulfonamide×HCl]
1 to 10	+++ (between 100 and 150)	Cc1nc(OC[C@@H]2CCCN2)ccc1NS(=O)(=O)c1ccc(C(C)C)cc1 [Example 43, 4-Isopropyl-N-[2-methyl-6-((S)-1-pyrrolidin-2-ylmethoxy)-pyridin-3-yl]-benzenesulfonamide×HCl]
10 to 50	+ (between 10 and 50)	CCCNCCOc1ccc(NS(=O)(=O)c2ccc(C(C)C)cc2)cn1 [Example 23, 4-Isopropyl-N-[6-(2-propylamino-ethoxy)-pyridin-3-yl]-benzenesulfonamide×HCl]
< 1	++ (between 50 and 100)	CCCNCCOc1ccc(NS(=O)(=O)c2ccc(C(C)C)cc2)c(OC)n1 [Example 4, 4-Isopropyl-N-[2-methoxy-6-(2-propylamino-ethoxy)-pyridin-3-yl]-benzenesulfonamide×HCl]
1 to 10	++ (between 50 and 100)	CCCNCCOc1ccc(NS(=O)(=O)c2ccc(C(C)C(F)(F)F)cc2)c(OC)n1 (stereo not drawn) [Example 3, N-[2-Methoxy-6-(2-propylamino-ethoxy)-pyridin-3-yl]-4-(2,2,2-trifluoro-1-methylethyl)-benzenesulfonamide×HCl]
10 to 50	++++ (>150)	CCCNCCOc1ccc(NS(=O)(=O)c2ccc(-c3cnco3)cc2)c(C)n1 [Example 36, N-[2-Methyl-6-(2-propylamino-ethoxy)-pyridin-3-yl]-4-oxazol-5-yl-benzenesulfonamide×HCl]
1 to 10	++++ (>150)	CCCNCCOc1ccc(NS(=O)(=O)c2ccc(OCCF)cc2)c(OC)n1 [Example 8, 4-(2-Fluoro-ethoxy)-N-[2-methoxy-6-(2-propylamino-ethoxy)-pyridin-3-yl]-benzenesulfonamide×HCl]
1 to 10	+++ (between 100 and 150)	COc1nc(OC[C@H]2CCCN2)ccc1NS(=O)(=O)c1ccc(-c2cnco2)cc1 [Example 27, N-[2-Methoxy-6-((R)-1-pyrrolidin-2-ylmethoxy)-pyridin-3-yl]-4-oxazol-5-yl-benzenesulfonamide×HCl]
< 1	++++ (>150)	CCCNCCOc1ccc(NS(=O)(=O)c2ccc(C(C)C)cc2)c(C)n1 [Example 29, 4-Isopropyl-N-[2-methyl-6-(2-propylamino-ethoxy)-pyridin-3-yl]-benzenesulfonamide×HCl]
50 to 150	+ (between 10 and 50)	COc1nc(OC2CCNC2)ccc1NS(=O)(=O)c1ccc(C(C)C)cc1 (stereo not drawn) [Example 13, 4-Isopropyl-N-[2-methoxy-6-(pyrrolidin-3-yloxy)-pyridin-3-yl]-benzenesulfonamide×HCl]
1 to 10	++++ (>150)	CCCNCCOc1ccc(NS(=O)(=O)c2ccc(OCC(F)F)cc2)c(OC)n1 [Example 9, 4-(2,2-Difluoro-ethoxy)-N-[2-methoxy-6-(2-propylamino-ethoxy)-pyridin-3-yl]-benzenesulfonamid×HCl]
10 to 50	+ (between 10 and 50)	COc1nc(OCCN2CCCC2)ccc1NS(=O)(=O)c1ccc(CCCF)cc1 [Example 15, 4-(3-Fluoro-propyl)-N-[2-methoxy-6-(2-pyrrolidin-1-yl-ethoxy)-pyridin-3-yl]-benzenesulfonamide]
10 to 50	++ (between 50 and 100)	CCCNCCOc1cc(C)c(NS(=O)(=O)c2ccc([C@@H](C)CF)cc2)cn1 [Example 57, 4-((R)-2-Fluoro-1-methyl-ethyl)-N-[4-methyl-6-(2-propylamino-ethoxy)-pyridin-3-yl]-benzenesulfonamide×HCl]

Structure (SMILES)	Ki [1] [nM]	Ki(D2)*/Ki(D3)* [2]
CCCN1CCC(Oc2ccc(NS(=O)(=O)c3ccc(C(C)C)cc3)c(C)n2)C1.O=C(O)/C=C/C(=O)O (stereo not drawn) [Example 61, 4-Isopropyl-N-{2-methyl-6-[(1-propylpyrrolidin-3-yl)oxy]pyridin-3-yl}benzenesulfonamide (2E)-but-2-enedioate]	1 to 10	+ (between 10 and 50)
CCCNCCOc1ccc(NS(=O)(=O)c2ccc(OC(F)(F)F)cc2)c(OC)n1.Cl [Example 2, N-[2-Methoxy-6-(2-propylamino-ethoxy)-pyridin-3-yl]-4-trifluoromethoxy-benzenesulfonamide×HCl]	1 to 10	+ (between 10 and 50)
